Values quoted from earlier work as cited in US20230263806A1, “METHODS OF TREATING PROTEINOPATHIES” (Woolsey Pharmaceuticals, Inc., priority 2020, published 2023).
Structures can show the parent of a compound that is named as a salt.

Assays:
[1] = target: p38 mitogen-activated protein kinase (Homo sapiens, UniProt Q16539)
[2] = 1-hydroxy (M3) metabolite, in vivo
[3] = test system: triple transgenic mouse model (APP Swedish, MAPT P301L, and PSEN1 M146V); conditions: 10 mg/kg/day intraperitoneally (57 mg HED)
[4] = test system: triple transgenic Mice; conditions: 10 or 12 months of age; administered in water at 30 mg/kg and 100 mg/kg

Chain of p38 mitogen-activated protein kinase (Q16539 2-360 limits assumed): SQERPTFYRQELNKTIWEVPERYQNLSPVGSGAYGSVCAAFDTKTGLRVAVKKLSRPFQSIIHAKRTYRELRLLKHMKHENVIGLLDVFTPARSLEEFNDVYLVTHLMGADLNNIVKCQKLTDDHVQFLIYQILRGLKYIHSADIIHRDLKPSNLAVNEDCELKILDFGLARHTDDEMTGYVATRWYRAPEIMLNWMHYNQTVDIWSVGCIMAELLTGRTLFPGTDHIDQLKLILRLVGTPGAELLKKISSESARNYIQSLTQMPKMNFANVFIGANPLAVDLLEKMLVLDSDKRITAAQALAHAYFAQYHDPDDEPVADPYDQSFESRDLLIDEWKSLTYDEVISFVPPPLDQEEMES

Question: Which “primary endpoint of improving episodic memory” value ([1]; Phase 2) does the source give for `O=c1ncn2nc(Sc3ccc(F)cc3F)ccc2c1-c1c(Cl)cccc1Cl` [Neflamapimod] here?
Answer: failed

Question: And the “tau in the cerebrospinal fluid” value ([1]; Phase 2)?
Answer: reducing tau

Question: What about the Aβ deposition ([1]; humans) of the same compound?
Answer: no effect

Question: For `O=S(=O)(c1cccc2c(O)nccc12)N1CCCNCC1` [M3], which half-life [2] is on record?
Answer: about 8 hours

Question: Which “amyloid plaques in vivo” value [3] does the source give for `O=S(=O)(c1cccc2cnccc12)N1CCCNCC1` [fasudil, Hexahydro-1-(5-isoquinolinesulfonyl)-1H-1,4-diazepine Monohydrochloride Hemihydrate] here?
Answer: reduce 1 amyloid plaques

Question: And the spatial memory [4]?
Answer: did not observe improvements in spatial memory
